Data taken from patent publication US5888993A, “Vanadium compounds in the treatment of elevated blood sugar levels” (The University of British Columbia, priority 1997, dated 1999).

Assays:
Format in all cases: in vivo, rat
non diabetic rats = assay: Previous laboratory studies of BMOV in non diabetic rats; details: 0.75 mg/ml
Experimental: (§1) 11 SHR and 12 WKY rats (all male) were procured at 4 weeks of age from Charles River, Canada. The animals were divided into four experimental groups: SHR (untreated n=5), SHRO (BMOV treated n=6), WKY (untreated n=8) and WKYO (BMOV treated n=4). Chronic BMOV treatment was commenced on the SHRO and WKYO groups at 5 weeks of age. The rats were given BMOV (0.75 mg/ml) ad libitum in the drinking water.

diabetic rats [1] = assay: BMOV single oral gavage, STZ diabetic rats; details: 160 μmol/kg
diabetic rats [2] = assay: Prolonged administration in drinking water (77 days), STZ diabetic rats
Experimental: (§2) BMOV was administered to normal and diabetic rats in drinking water.
(§3) The study was composed of 4 groups of animals Control (8 animals), Control-Treated (11 animals), Diabetic (11 animals) and Diabetic-Treated (12 animals). The diabetic state was induced by injecting STZ at 60 mg/kg dissolved in 0.9% NaCl I.V. via the tail vein to anaesthetized rats. The two control groups were injected with 0.9% NaCl I.V. through the tail vein. The diabetic state was determined with a "Testape"™ test at 3 days post-injection and later confirmed with a glucometer test. Blood glucose and insulin assays were carried out post-injection over the course of the study. Treatment according to the invention was started 1 week after determination of the diabetic state.
(§4) Treated diabetic animals received between 0.3 and 0.5 mmol/kg of the compound/day in drinking water over a 77 day period. Treated control animals received a slightly lower dose (0.2-0.3 mmol/day) over the same period. The concentration of BMOV in the drinking water was varied between 1.6 and 3.2 mM. The reason for the differing doses in the two sets of animals is that the two groups drank different amounts of water daily; it was difficult to attain the same dose in both groups.
(§5) 1. As indicated above, 4 groups of animals were studied, but the diabetic-treated group was sub-divided to diabetic-treated responders (8 animals) and diabetic-treated non-responders (4 animals). Curve 1 is the control group, curve 2 the control-treated group, curve 3 the diabetic group, curve 4 is the diabetic-treated responders and curve 5 is the diabetic-treated non-responders. […] Treatment began with a […] solution of the compound. […] On day 24, the concentration was increased to 2.37 mM (0.7 mg/ml).

STZ-diabetic rats = assay: Comparison of BMOV and ETHYLBMOV, plasma glucose and insulin in STZ-diabetic rats; details: 0.6 mmol kg^-1, one oral gavage, 24 hour period
Experimental: Animal studies were conducted in STZ-diabetic rats comparing doses of 0.6 mmol kg^-1 for VO(ma)2 (BMOV) and VO(ema)2 (ETHYLVMOV). FIGS. 8 and 9 respectively show plasma glucose and plasma insulin values recorded over 24 hour periods after one oral gavage of a water solution of either BMOV or ETHYLBMOV, in order to compare their efficacies.

diabetic rats [3] = assay: Comparison of BMOV and vanadyl kojate, acute time course of plasma glucose, rats made diabetic with STZ; set-up: plasma glucose level: unit not given here
Experimental: Using BMOV and Vanadyl Kojate as prepared in Examples 1 and 2 above, the relative efficacy of the two compounds was assessed using rats made diabetic with STZ. Again the animals were divided into responder and non-responder groups. For a 0.063 mmol V/kg ip injection, BMOV gave a 50:50 split between responder and non-responder groups whereas for vanadyl kojate the ratio was 60:40. On oral gavage of 0.55 mmol V/kg the responder:non-responder ratios were 50:50 and 57:43 respectively (n=10). However over a 12 day test period, there was a 100% response in terms of blood glucose reduction for diabetic rats receiving vanadyl kojate orally.

diabetic rats [4] = assay: BMOV in drinking water, STZ diabetic rats
WKY rats = assay: Blood pressure study with BMOV, Wistar Kyoto rats; details: WKYO, 0.75 mg/ml in drinking water
Experimental: as §1
Once at week 5 and then starting at week 8, weekly measurements of blood pressure were done on all groups for the next 3 weeks. Blood samples were also collected via the tail vein during the weeks mentioned above. These were centrifuged and plasma was collected for subsequent glucose and insulin analyses. Chronic blood pressure measurements were done on conscious rats, using the tail cuff method without external preheating. Initial experiments to validate the tail cuff method by comparing the readings obtained with it to those obtained by direct arterial cannulation were conducted.

normal rats = assay: Prolonged administration in drinking water (77 days), normal (control) rats
Experimental: as §2, §3, §4, §5

[5] = diabetic-treated non-responders, pretreatment, mean ± S.E.M.
[6] = diabetic-treated non-responders, week 6, mean ± S.E.M.
[7] = diabetic-treated responders, pretreatment, mean ± S.E.M.
[8] = diabetic-treated responders, week 6, mean ± S.E.M.
[9] = control treated, week 6, mean ± S.E.M.

Compound: Cc1occc(=O)c1[O-].Cc1occc(=O)c1[O-].[O]=[V+2] [BMOV, Bis(maltolato)oxovanadium(IV)]
- plasma insulin levels (non diabetic rats): sufficient to lower plasma insulin levels
- rats responding with a decrease in blood glucose (diabetic rats [1]): Six out of six
- time of peak fall in blood glucose (diabetic rats [1]): 5 h
- time for return of blood glucose to diabetic levels (diabetic rats [1]; usually): ≤ 12 h
- weight, diabetic-treated groups vs all other groups (diabetic rats [2]; both diabetic-treated groups, by day 7): significant difference
- plasma triglyceride and cholesterol, in words (diabetic rats [2]; diabetic animals): restored to control values
- fluid intake (diabetic rats [2]; diabetic treated (diabetic about 275 ml/rat)): about 60 ml/rat
- food intake (diabetic rats [2]; diabetic-treated (from greater than 50 grams per day)): about 30 grams per day
- weight, non-responders vs other 4 groups (diabetic rats [2]; diabetic-treated non-responders, by day 28): significantly different from the other 4 groups
- Cholesterol (diabetic rats [2]; [5]): 1.51 ± 0.07 mmol/L
- Triglyceride (diabetic rats [2]; [5]): 1.85 ± 0.41 mmol/L
- Cholesterol (diabetic rats [2]; [6]): 1.48 ± 0.09 mmol/L
- Triglyceride (diabetic rats [2]; [6]): 2.31 ± 0.19 mmol/L
- hypoglycemia (diabetic rats [2]; diabetic-treated responders, before day 18, treatment withheld): developed in several animals
- blood glucose, in words (diabetic rats [2]; diabetic-treated responders, by day 14): euglycemic
- weight, responders vs diabetic group (diabetic rats [2]; diabetic-treated responders, by day 28): no longer a significant difference
- Cholesterol (diabetic rats [2]; [7]): 1.67 ± 0.10 mmol/L
- Triglyceride (diabetic rats [2]; [7]): 1.10 ± 0.09 mmol/L
- Cholesterol (diabetic rats [2]; [8]): 1.58 ± 0.11 mmol/L
- Triglyceride (diabetic rats [2]; [8]): 1.70 ± 0.18 mmol/L
- weight gain (diabetic rats [2]; diabetic-treated, 77 days, drinking water): 140 g
- food consumption vs control, in words (diabetic rats [2]; diabetic-treated, at any time): no significant difference
- Insulin values (diabetic rats [2]; diabetic-treated, day 28 of BMOV study): 22.0 ± 1.6 μU/ml
- food intake (diabetic rats [2]; diabetic-treated, day 77): 28±1.6 grams per day
- animals responding (blood glucose lowered) (diabetic rats [2]; diabetic-treated, drinking water): 8 out of the 12 and eight of the twelve
- fluid consumption vs control, in words (diabetic rats [2]; diabetic-treated, throughout): no significant difference
- blood glucose (diabetic rats [2]; non-responders (four of the twelve rats), on any given day): 6 to 30 mM
- blood glucose, in words (diabetic rats [2]; responders, by day 24): normal blood glucose
- blood glucose (diabetic rats [2]; responders, from day 7 onwards (from 20 mM)): less than 10 mM
- cataracts (diabetic rats [2]; treated animals not controlled by the drug, end of 77 days): One of the four
- cataracts (diabetic rats [2]; treated diabetic rats controlled by the drug, end of 77 days (untreated diabetic 5/11)): 0/8
- plasma glucose, difference BMOV vs ETHYLBMOV (STZ-diabetic rats): statistically insignificant
- plasma insulin, difference BMOV vs ETHYLBMOV (STZ-diabetic rats): statistically insignificant
- plasma glucose level (diabetic rats [3]; i.p. 0.063 mmol/kg, nonresponders (DTN), 0 h): 19.42
- plasma glucose level (diabetic rats [3]; i.p. 0.063 mmol/kg, nonresponders (DTN), 1 h): 18.82
- plasma glucose level (diabetic rats [3]; i.p. 0.063 mmol/kg, nonresponders (DTN), 2 h): 18.51
- plasma glucose level (diabetic rats [3]; i.p. 0.063 mmol/kg, nonresponders (DTN), 4 h): 17.94
- plasma glucose level (diabetic rats [3]; i.p. 0.063 mmol/kg, nonresponders (DTN), 6 h): 18.08
- plasma glucose level (diabetic rats [3]; i.p. 0.063 mmol/kg, nonresponders (DTN), 8 h): 17.77
- plasma glucose level (diabetic rats [3]; i.p. 0.063 mmol/kg, nonresponders (DTN), 12 h): 19.07
- plasma glucose level (diabetic rats [3]; i.p. 0.063 mmol/kg, nonresponders (DTN), 24 h): 19.01
- plasma glucose level (diabetic rats [3]; i.p. 0.063 mmol/kg, responders (DTR), 0 h): 17.51
- plasma glucose level (diabetic rats [3]; i.p. 0.063 mmol/kg, responders (DTR), 1 h): 14.77
- plasma glucose level (diabetic rats [3]; i.p. 0.063 mmol/kg, responders (DTR), 2 h): 12.65
- plasma glucose level (diabetic rats [3]; i.p. 0.063 mmol/kg, responders (DTR), 4 h): 10.6
- plasma glucose level (diabetic rats [3]; i.p. 0.063 mmol/kg, responders (DTR), 6 h): 10.28
- plasma glucose level (diabetic rats [3]; i.p. 0.063 mmol/kg, responders (DTR), 8 h): 9.08
- plasma glucose level (diabetic rats [3]; i.p. 0.063 mmol/kg, responders (DTR), 12 h): 9.38
- plasma glucose level (diabetic rats [3]; i.p. 0.063 mmol/kg, responders (DTR), 24 h): 7.15
- plasma glucose level (diabetic rats [3]; oral gavage 0.55 mmol/kg, nonresponders (DTN), 0 h): 19.31
- plasma glucose level (diabetic rats [3]; oral gavage 0.55 mmol/kg, nonresponders (DTN), 1 h): 18.05
- plasma glucose level (diabetic rats [3]; oral gavage 0.55 mmol/kg, nonresponders (DTN), 2 h): 17.57
- plasma glucose level (diabetic rats [3]; oral gavage 0.55 mmol/kg, nonresponders (DTN), 4 h): 16.92
- plasma glucose level (diabetic rats [3]; oral gavage 0.55 mmol/kg, nonresponders (DTN), 6 h): 16.43
- plasma glucose level (diabetic rats [3]; oral gavage 0.55 mmol/kg, nonresponders (DTN), 8 h): 15.02
- plasma glucose level (diabetic rats [3]; oral gavage 0.55 mmol/kg, nonresponders (DTN), 12 h): 17.17
- plasma glucose level (diabetic rats [3]; oral gavage 0.55 mmol/kg, nonresponders (DTN), 24 h): 18.07
- plasma glucose level (diabetic rats [3]; oral gavage 0.55 mmol/kg, responders (DTR), 0 h): 18.09
- plasma glucose level (diabetic rats [3]; oral gavage 0.55 mmol/kg, responders (DTR), 1 h): 14.55
- plasma glucose level (diabetic rats [3]; oral gavage 0.55 mmol/kg, responders (DTR), 2 h): 13.13
- plasma glucose level (diabetic rats [3]; oral gavage 0.55 mmol/kg, responders (DTR), 4 h): 11.68
- plasma glucose level (diabetic rats [3]; oral gavage 0.55 mmol/kg, responders (DTR), 6 h): 9.47
- plasma glucose level (diabetic rats [3]; oral gavage 0.55 mmol/kg, responders (DTR), 8 h): 9.27
- plasma glucose level (diabetic rats [3]; oral gavage 0.55 mmol/kg, responders (DTR), 12 h): 7.01
- plasma glucose level (diabetic rats [3]; oral gavage 0.55 mmol/kg, responders (DTR), 24 h): 6.31
- fluid intake (diabetic rats [4]; 0.46-0.92 mmol/kg): decreased to normal
- blood glucose reduction (diabetic rats [4]; 0.46-0.92 mmol/kg (150-300 mg/kg), four diabetic rats): reduced blood glucose in four diabetic rats into the normal range
- systolic blood pressure, normotensive controls (WKY rats): without having any effect
- insulin vs control, in words (normal rats; control treated): significantly lower
- fluid intake (normal rats; control treated, day 77 (control 62.7±7.4)): 33.6 ± 7.2 mL
- Cholesterol (normal rats; control treated, pretreatment (day before treatment started), mean ± S.E.M.): 1.64 ± 0.08 mmol/L
- Triglyceride (normal rats; control treated, pretreatment, mean ± S.E.M.): 1.21 ± 0.14 mmol/L
- Cholesterol (normal rats; [9]): 1.60 ± 0.06 mmol/L
- Triglyceride (normal rats; [9]): 2.04 ± 0.22 mmol/L
- food intake (normal rats; control-treated (control 29±0.1)): 25.5±0.3 grams per day
- weight gain (normal rats; control-treated, 77 days, drinking water (control 250 g)): 200 g
- fluid consumption vs all other groups, in words (normal rats; control-treated, by day 63): significant difference
- weight gain, in words (normal rats; control-treated, from day 56): significantly decreased weight gain
- food consumption vs all other groups, in words (normal rats; control-treated, from day 63 on): significant difference
